Each compound was assayed on differentiated 3T3-L1 mouse adipocyte cells (assay: Adipocyte glucose consumption in differentiated 3T3-L1 mouse adipocyte cells (loss of glucose from medium, colorimetric)). Details: compound 10 μM, 22 to 24 hours, differentiated 3T3-L1 adipocytes, compound/DMSO, read-out: Glucose consumption (fold change) Mean.
Type: cell-based
Description: Activity of compounds on adipocyte glucose consumption was tested in differentiated 3T3-L1 mouse adipocyte cells. 3T3-L1 preadipocytes (ATCC) were routinely cultured in a growth medium composed of DMEM high-glucose (Sigma), 10% FBS (Gibco), 10 U/ml penicillin and 10 μg/ml streptomycin (P/S; Gibco). To induce adipogenic differentiation, a confluent layer of 3T3-L1 cells were incubated with the growth medium containing 2 μM rosiglitazone, 1 μM dexamethasone, 500 μM IBMX, and 1 μg/ml insulin (Sigma). Forty-eight (48) hours later (on day 2) and on days 4 and 6, medium of the cells was replaced with fresh medium containing 1 μg/ml insulin. On days 8 and 10, the medium was refreshed with regular growth medium and addition of insulin was omitted. On day 11 or 12, medium of the cells were replaced with fresh medium containing either the indicated compounds (10 μM) or the vehicle in which the compounds were dissolved (DMSO). The final concentration of DMSO was 0.1% (v/v). Growth medium containing 0.1% DMSO was incubated in culture wells containing no cells and used as control. Twenty-two to 24 hours later, medium was harvested and subjected to centrifugation at 10,000 g for 5 min. Glucose concentration in the supernatants was determined using a colorimetric assay (Glucose Assay Kit I, Eton Biosciences). Glucose consumption in compound and vehicle treated cells was measured as loss of glucose from the culture medium and represented as mean fold change (compound/DMSO) t standard deviation (SD).
Work on `CCCCC1CCCc2c(n(Cc3cccc(OC)c3)c3c(C(=O)O)cccc23)C1` (centres unmarked) [7-butyl-5-[(3-methoxyphenyl)methyl]-5H,6H,7H,8H,9H,10H-cyclohepta[b]indole-4-carboxylic acid] yielded a fold induction at 10 µM of 1.23. Compound `CCCCC1CCCc2c(n(Cc3cccc(C)c3)c3c(C(=O)O)cccc23)C1` (centres unmarked) [7-butyl-5-[(3-methylphenyl)methyl]-5H,6H,7H,8H,9H,10H-cyclohepta[b]indole-4-carboxylic acid] has a fold induction at 10 µM of 1.32. `CCCCC1CCCc2c(n(Cc3ccc(C(N)=O)cc3)c3c(C(=O)O)cccc23)C1` (centres unmarked) [7-butyl-5-[(4-carbamoylphenyl)methyl]-5H,6H,7H,8H,9H,10H-cyclohepta[b]indole-4-carboxylic acid] gave a fold induction at 10 µM of 1.13. Work on `CCCCC1CCCc2c(n(Cc3ccc(C)cc3)c3c(C(=O)O)cccc23)C1` (centres unmarked) [7-butyl-5-[(4-methylphenyl)methyl]-5H,6H,7H,8H,9H,10H-cyclohepta[b]indole-4-carboxylic acid] yielded a fold induction at 10 µM of 1.27. `CCCCC1CCCc2c(n(Cc3cccnc3)c3c(C(=O)O)cccc23)C1` (centres unmarked) [7-butyl-5-[(pyridin-3-yl)methyl]-5H,6H,7H,8H,9H,10H-cyclohepta[b]indole-4-carboxylic acid] gave a fold induction at 10 µM of 1.21. With `CCCCCCC1CCCc2c(n(Cc3ccnc(OC)c3)c3c(C(=O)O)cccc23)C1` (centres unmarked) [7-hexyl-5-[(2-methoxypyridin-4-yl)methyl]-5H,6H,7H,8H,9H,10H-cyclohepta[b]indole-4-carboxylic acid] the fold induction at 10 µM was 1.12. Work on `CCCCCCC1CCCc2c(n(Cc3ccccc3C)c3c(C(=O)O)cccc23)C1` (centres unmarked) [7-hexyl-5-[(2-methylphenyl)methyl]-5H,6H,7H,8H,9H,10H-cyclohepta[b]indole-4-carboxylic acid] yielded a fold induction at 10 µM of 1. Work on `CCCCCCC1CCCc2c(n(Cc3cccc(C)c3)c3c(C(=O)O)cccc23)C1` (centres unmarked) [7-hexyl-5-[(3-methylphenyl)methyl]-5H,6H,7H,8H,9H,10H-cyclohepta[b]indole-4-carboxylic acid] yielded a fold induction at 10 µM of 1.13. In the case of `CCCCCCC1CCCc2c(n(Cc3ccc(C)cc3)c3c(C(=O)O)cccc23)C1` (centres unmarked) [7-hexyl-5-[(4-methylphenyl)methyl]-5H,6H,7H,8H,9H,10H-cyclohepta[b]indole-4-carboxylic acid], the fold induction at 10 µM is reported as 1.05. In the case of `CCCCCCC1CCCc2c(n(Cc3cccnc3)c3c(C(=O)O)cccc23)C1` (centres unmarked) [7-hexyl-5-[(pyridin-3-yl)methyl]-5H,6H,7H,8H,9H,10H-cyclohepta[b]indole-4-carboxylic acid], the fold induction at 10 µM is reported as 1.14. Compound `CCCCCCC1CCc2c(n(Cc3ccccc3C#N)c3c(C(=O)O)cccc23)C1` (centres unmarked) [9-[(2-cyanophenyl)methyl]-2-hexyl-2,3,4,9-tetrahydro-1H-carbazole-8-carboxylic acid] has a fold induction at 10 µM of 1.13. `CCCCCCC1CCc2c(n(Cc3ccccc3F)c3c(C(=O)O)cccc23)C1` (centres unmarked) [9-[(2-fluorophenyl)methyl]-2-hexyl-2,3,4,9-tetrahydro-1H-carbazole-8-carboxylic acid] was tested, and the fold induction at 10 µM was 1.24. With `CCCCCOC1CCCc2c1n(Cc1cccc(C(N)=O)c1)c1c(C(=O)O)cccc21` (centres unmarked) [9-[(3-carbamoylphenyl)methyl]-1-(pentyloxy)-2,3,4,9-tetrahydro-1H-carbazole-8-carboxylic acid] the fold induction at 10 µM was 1.09. Compound `CCC1CCCc2c1n(Cc1cccc(C(N)=O)c1)c1c(C(=O)O)cccc21` (centres unmarked) [9-[(3-carbamoylphenyl)methyl]-1-ethyl-2,3,4,9-tetrahydro-1H-carbazole-8-carboxylic acid] has a fold induction at 10 µM of 0.94. For `CCCOC1CCCc2c1n(Cc1cccc(C(N)=O)c1)c1c(C(=O)O)cccc21` (centres unmarked) [9-[(3-carbamoylphenyl)methyl]-1-propoxy-2,3,4,9-tetrahydro-1H-carbazole-8-carboxylic acid], the fold induction at 10 µM was 1.03. `CCC1CCc2c(n(Cc3cccc(C(N)=O)c3)c3c(C(=O)O)cccc23)C1` (centres unmarked) [9-[(3-carbamoylphenyl)methyl]-2-ethyl-2,3,4,9-tetrahydro-1H-carbazole-8-carboxylic acid] showed a fold induction at 10 µM of 1.06. `CCCCCCC1CCc2c(n(Cc3cccc(C(N)=O)c3)c3c(C(=O)O)cccc23)C1` (centres unmarked) [9-[(3-carbamoylphenyl)methyl]-2-hexyl-2,3,4,9-tetrahydro-1H-carbazole-8-carboxylic acid] was tested, and the fold induction at 10 µM was 1.13. With `CCCCCC1CCc2c(n(Cc3cccc(C(N)=O)c3)c3c(C(=O)O)cccc23)C1` (centres unmarked) [9-[(3-carbamoylphenyl)methyl]-2-pentyl-2,3,4,9-tetrahydro-1H-carbazole-8-carboxylic acid] the fold induction at 10 µM was 1.13. Work on `CCCC1CCc2c(n(Cc3cccc(C(N)=O)c3)c3c(C(=O)O)cccc23)C1` (centres unmarked) [9-[(3-carbamoylphenyl)methyl]-2-propyl-2,3,4,9-tetrahydro-1H-carbazole-8-carboxylic acid] yielded a fold induction at 10 µM of 1.09. For `CCC1CCc2c(c3cccc(C(=O)O)c3n2Cc2cccc(C(N)=O)c2)C1` (centres unmarked) [9-[(3-carbamoylphenyl)methyl]-3-ethyl-2,3,4,9-tetrahydro-1H-carbazole-8-carboxylic acid], the fold induction at 10 µM was 1.1. For `CCCCCC1CCc2c(c3cccc(C(=O)O)c3n2Cc2cccc(C(N)=O)c2)C1` (centres unmarked) [9-[(3-carbamoylphenyl)methyl]-3-pentyl-2,3,4,9-tetrahydro-1H-carbazole-8-carboxylic acid], the fold induction at 10 µM was 1.08. Compound `CCCC1CCc2c(c3cccc(C(=O)O)c3n2Cc2cccc(C(N)=O)c2)C1` (centres unmarked) [9-[(3-carbamoylphenyl)methyl]-3-propyl-2,3,4,9-tetrahydro-1H-carbazole-8-carboxylic acid] has a fold induction at 10 µM of 1.1. `CCC1CCCc2c1c1cccc(C(=O)O)c1n2Cc1cccc(C(N)=O)c1` (centres unmarked) [9-[(3-carbamoylphenyl)methyl]-4-ethyl-2,3,4,9-tetrahydro-1H-carbazole-8-carboxylic acid] gave a fold induction at 10 µM of 1.21. For `CCCCCC1CCCc2c1c1cccc(C(=O)O)c1n2Cc1cccc(C(N)=O)c1` (centres unmarked) [9-[(3-carbamoylphenyl)methyl]-4-pentyl-2,3,4,9-tetrahydro-1H-carbazole-8-carboxylic acid], the fold induction at 10 µM was 1.12. Work on `CCCC1CCCc2c1c1cccc(C(=O)O)c1n2Cc1cccc(C(N)=O)c1` (centres unmarked) [9-[(3-carbamoylphenyl)methyl]-4-propyl-2,3,4,9-tetrahydro-1H-carbazole-8-carboxylic acid] yielded a fold induction at 10 µM of 1.04. `CCC1CCCc2c1n(Cc1cccc(C(=O)O)c1)c1c(C(=O)O)cccc21` (centres unmarked) [9-[(3-carboxyphenyl)methyl]-1-ethyl-2,3,4,9-tetrahydro-1H-carbazole-8-carboxylic acid] was tested, and the fold induction at 10 µM was 1.09. Work on `CCC1CCc2c(n(Cc3cccc(C(=O)O)c3)c3c(C(=O)O)cccc23)C1` (centres unmarked) [9-[(3-carboxyphenyl)methyl]-2-ethyl-2,3,4,9-tetrahydro-1H-carbazole-8-carboxylic acid] yielded a fold induction at 10 µM of 1.11. For `CCC1CCCc2c1c1cccc(C(=O)O)c1n2Cc1cccc(C(=O)O)c1` (centres unmarked) [9-[(3-carboxyphenyl)methyl]-4-ethyl-2,3,4,9-tetrahydro-1H-carbazole-8-carboxylic acid], the fold induction at 10 µM was 1.06. `CCCCCOC1CCCc2c1n(Cc1cccc(C#N)c1)c1c(C(=O)O)cccc21` (centres unmarked) [9-[(3-cyanophenyl)methyl]-1-(pentyloxy)-2,3,4,9-tetrahydro-1H-carbazole-8-carboxylic acid] showed a fold induction at 10 µM of 1.19. `CCC1CCCc2c1n(Cc1cccc(C#N)c1)c1c(C(=O)O)cccc21` (centres unmarked) [9-[(3-cyanophenyl)methyl]-1-ethyl-2,3,4,9-tetrahydro-1H-carbazole-8-carboxylic acid] gave a fold induction at 10 µM of 1.11. `CCCCCCC1CCc2c(n(Cc3cccc(C#N)c3)c3c(C(=O)O)cccc23)C1` (centres unmarked) [9-[(3-cyanophenyl)methyl]-2-hexyl-2,3,4,9-tetrahydro-1H-carbazole-8-carboxylic acid] showed a fold induction at 10 µM of 1.16. For `CCCCCC1CCc2c(n(Cc3cccc(C#N)c3)c3c(C(=O)O)cccc23)C1` (centres unmarked) [9-[(3-cyanophenyl)methyl]-2-pentyl-2,3,4,9-tetrahydro-1H-carbazole-8-carboxylic acid], the fold induction at 10 µM was 1.34. For `CCCC1CCc2c(n(Cc3cccc(C#N)c3)c3c(C(=O)O)cccc23)C1` (centres unmarked) [9-[(3-cyanophenyl)methyl]-2-propyl-2,3,4,9-tetrahydro-1H-carbazole-8-carboxylic acid], the fold induction at 10 µM was 1.21. Compound `CCC1CCc2c(c3cccc(C(=O)O)c3n2Cc2cccc(C#N)c2)C1` (centres unmarked) [9-[(3-cyanophenyl)methyl]-3-ethyl-2,3,4,9-tetrahydro-1H-carbazole-8-carboxylic acid] has a fold induction at 10 µM of 1.08. For `CCCCCC1CCc2c(c3cccc(C(=O)O)c3n2Cc2cccc(C#N)c2)C1` (centres unmarked) [9-[(3-cyanophenyl)methyl]-3-pentyl-2,3,4,9-tetrahydro-1H-carbazole-8-carboxylic acid], the fold induction at 10 µM was 1.17. `CCCC1CCc2c(c3cccc(C(=O)O)c3n2Cc2cccc(C#N)c2)C1` (centres unmarked) [9-[(3-cyanophenyl)methyl]-3-propyl-2,3,4,9-tetrahydro-1H-carbazole-8-carboxylic acid] showed a fold induction at 10 µM of 1.2. Work on `N#Cc1cccc(Cn2c3c(c4cccc(C(=O)O)c42)C(CCc2ccccc2)CCC3)c1` (centres unmarked) [9-[(3-cyanophenyl)methyl]-4-(2-phenylethyl)-2,3,4,9-tetrahydro-1H-carbazole-8-carboxylic acid] yielded a fold induction at 10 µM of 1.1. In the case of `CCCCCC1CCCc2c1c1cccc(C(=O)O)c1n2Cc1cccc(C#N)c1` (centres unmarked) [9-[(3-cyanophenyl)methyl]-4-pentyl-2,3,4,9-tetrahydro-1H-carbazole-8-carboxylic acid], the fold induction at 10 µM is reported as 1.13.
